Measured values taken from patent US9567641B2, “Combination therapy for the treatment of cancer using an anti-C-met antibody” (SAMSUNG ELECTRONICS CO., LTD., priority 2013, dated 2017).

Tests used:
[1] = tested on: MKN45 gastric cancer cell line with acquired resistance against L3-1Y/IgG2 antibody; assay: Cell viability, CellTiter Glo, resistance-acquired cell line; assay type: cell-based; conditions: 72 h
Procedure: To see whether the treatment RAF1 siRNA can overcome resistance acquired due to the repetitive treatment of an antibody, tests were carried out using MKN45 gastric cancer cell line which had been treated by L3-1Y/IgG2 antibody for 3 months or longer and acquired resistance against it. The resistance-acquired MKN45 gastric cancer cell line was prepared as follows: MKN45 cells (JCRB, JCRB0254) were treated with L3-1Y/IgG2 antibody in amounts being increased over 3 months or longer. The amount of L3-1Y/IgG2 antibody to be treated started from its initial treatment concentration of 1 ug/ml and was increased up to 10 ug/ml until resistance occurred. To confirm the acquisition of L3-1Y/IgG2 antibody resistance, the resistance-acquired clones were treated or not treated with L3-1Y/IgG2 antibody and then incubated, followed by CTG assays.
As a control group, All Negative control siRNA (Qiagen, cat. no. 1027281) was used, and as a target siRNA, a mixture of two kinds of siRNAs (see Table 7) that had effects during the screening was used. […]
(§1) 5000 cells of MKN45 cells which have acquired resistance against L3-1Y/IgG2 antibody were seeded onto a 96-well plate, and 24 hours after, the plate was treated with L3-1Y/IgG2 antibody and an ITGB3 inhibitor, cilengitide (Merck KGaA, EMD 121974). 72 hours later after the treatment, a change in the number of cells was measured using CellTiter Glo assay. The MKN45 cells which have acquired resistance against L3-1Y/IgG2 antibody were prepared referring to Example 4.3. Cilengitide was treated at a fixed concentration of 10 uM, and the L3-1Y/IgG2 antibody was treated by ⅕ dilution each time starting from 2 ug/ml. For comparison, the same test was conducted using L3-1Y/IgG2 antibody alone.
as §1, with “AKT” for “ITGB3”, “MK-2206” for “cilengitide”, “& Co Inc).” for “KGaA, EMD 121974).”, “MK-2206” for “Cilengitide”, “5” for “10”
To verify whether or not the resistance acquired by repetitive administration of anti-c-Met antibody can be overcome by BCL2L1 inhibition, L3-1Y/IgG2 antibody resistance acquired MKN45 cells, where the resistance against L3-1Y/IgG2 antibody is acquired by treating MKN45 gastric cancer cells (JCRB, JCRB0254) with the L3-1Y/IgG2 antibody for at least 3 months, were used. The L3-1Y/IgG2 antibody resistance acquired MKN45 gastric cancer cells were prepared referring to Example 4.3. […]

[2] = tested on: HCC1806 breast cancer cells; assay: Cell viability, CellTiter Glo, combination with L3-1Y/IgG2 antibody; assay type: cell-based; conditions: 72 h
Procedure: The efficacy of the combination administration of ITGB3 siRNA and L3-1Y/IgG2 antibody was examined in a breast cancer cell line on which the anti-c-Met antibody alone has no effects. For this, HCC1806 (ATCC, CRL-2335) and HCC1954 (ATCC, CRL-2338) cells were used.
As a control group, All Negative control siRNA (Qiagen, cat. no. 1027281) was used, and as a target siRNA, a mixture of two kinds of siRNAs (see Table 7) that had effects during the screening was used. Transfection was carried out by the same procedures as Example 3.1 and after 24 hours, the cultured cells were treated with L3-1Y/IgG2 antibody at 0 ug/ml, 0.016 ug/ml, 0.08 ug/ml, 0.4 ug/ml, or 2 ug/ml. 72 hours later after the treatment, 100 uL of CellTiter Glo solution (Promega, G7572) was added to each well, which was allowed to stay at a room temperature for 30 min. The number of cells was counted via luminescence signals, which were recorded using Envision 2104 Multi-label Reader (Perkin Elmer).
To verify the effect of the combination therapy using ITGB3 inhibitor and anti-c-Met antibody in breast cancer cells on which the anti-c-Met antibody has no effects, HCC1806 (ATCC, CRL-2335) cells were used. The HCC 1806 cells are a cell line known to have high amounts of c-Met.
as §1, with “HCC1806” for “MKN45”, “cells” for “cells which have acquired resistance against L3-1Y/IgG2 antibody”, “assay.” for “assay. The MKN45 cells which have acquired resistance against L3-1Y/IgG2 antibody were prepared referring to Example 4.3.”
The efficacy of combination administration was examined in a breast cancer cell line on which the anti-c-Met antibody has no effects. For this, HCC1806 (ATCC, CRL-2335) cells were used.
5000 HCC1806 cells were seeded onto a 96-well plate and 24 hours after, the plate was treated with L3-1Y/IgG2 antibody and an AKT inhibitor, MK-2206 (Merck & Co Inc) and 72 hours later after the antibody treatment, a change in the number of cells was measured using CellTiter Glo assay. MK-2206 was treated at a fixed concentration of 10 uM, and the L3-1Y/IgG2 antibody was treated by ⅕ dilution each time starting from 2 ug/ml. For comparison, the same test was conducted using L3-1Y/IgG2 antibody alone.

[3] = tested on: MKN45 gastric cancer cell line; assay: as above; assay type: cell-based; conditions: ABT-263 5 uM co-treated with L3-1Y/IgG2 0.08 ug/ml, 72 h
[4] = tested on: L3-1Y/IgG2 antibody resistance acquired EBC1 lung cancer cells; assay: Cell viability, CellTiter Glo, resistance-acquired cell line; assay type: cell-based; conditions: ABT-263 0.5 uM co-treated with L3-1Y/IgG2 (1/5 dilutions from 2 ug/ml), 72 h
Procedure: To verify whether or not the resistance acquired by repetitive administration of anti-c-Met antibody can be overcome by BCL2L1 inhibition, L3-1Y/IgG2 antibody resistance acquired EBC1 cells, where the resistance against L3-1Y/IgG2 antibody is acquired by treating EBC1 lung cancer cells (JCRB, JCRB0820) with the L3-1Y/IgG2 antibody for at least 3 months, were used. The L3-1Y/IgG2 antibody resistance acquired EBC1 lung cancer cells were prepared referring to Example 4.3.
5000 cells of the L3-1Y/IgG2 antibody resistance acquired EBC1 cells were seeded onto a 96-well plate and 24 hours after, the plate was treated with a BCL2 family inhibitor, ABT-263 (Abbott Laboratories) and 72 hours later after the antibody treatment, a change in the number of cells was measured using CellTiter Glo assay. ABT-263 was treated at a fixed concentration of 0.5 uM, and the L3-1Y/IgG2 antibody was treated by ⅕ dilution each time starting from 2 ug/ml.

[5] = target: c-Met (Homo sapiens, UniProt P08581); assay: Affinity / specificity for c-Met; assay type: binding; conditions: expressed scFv
Sequence of c-Met (P08581 25-1390): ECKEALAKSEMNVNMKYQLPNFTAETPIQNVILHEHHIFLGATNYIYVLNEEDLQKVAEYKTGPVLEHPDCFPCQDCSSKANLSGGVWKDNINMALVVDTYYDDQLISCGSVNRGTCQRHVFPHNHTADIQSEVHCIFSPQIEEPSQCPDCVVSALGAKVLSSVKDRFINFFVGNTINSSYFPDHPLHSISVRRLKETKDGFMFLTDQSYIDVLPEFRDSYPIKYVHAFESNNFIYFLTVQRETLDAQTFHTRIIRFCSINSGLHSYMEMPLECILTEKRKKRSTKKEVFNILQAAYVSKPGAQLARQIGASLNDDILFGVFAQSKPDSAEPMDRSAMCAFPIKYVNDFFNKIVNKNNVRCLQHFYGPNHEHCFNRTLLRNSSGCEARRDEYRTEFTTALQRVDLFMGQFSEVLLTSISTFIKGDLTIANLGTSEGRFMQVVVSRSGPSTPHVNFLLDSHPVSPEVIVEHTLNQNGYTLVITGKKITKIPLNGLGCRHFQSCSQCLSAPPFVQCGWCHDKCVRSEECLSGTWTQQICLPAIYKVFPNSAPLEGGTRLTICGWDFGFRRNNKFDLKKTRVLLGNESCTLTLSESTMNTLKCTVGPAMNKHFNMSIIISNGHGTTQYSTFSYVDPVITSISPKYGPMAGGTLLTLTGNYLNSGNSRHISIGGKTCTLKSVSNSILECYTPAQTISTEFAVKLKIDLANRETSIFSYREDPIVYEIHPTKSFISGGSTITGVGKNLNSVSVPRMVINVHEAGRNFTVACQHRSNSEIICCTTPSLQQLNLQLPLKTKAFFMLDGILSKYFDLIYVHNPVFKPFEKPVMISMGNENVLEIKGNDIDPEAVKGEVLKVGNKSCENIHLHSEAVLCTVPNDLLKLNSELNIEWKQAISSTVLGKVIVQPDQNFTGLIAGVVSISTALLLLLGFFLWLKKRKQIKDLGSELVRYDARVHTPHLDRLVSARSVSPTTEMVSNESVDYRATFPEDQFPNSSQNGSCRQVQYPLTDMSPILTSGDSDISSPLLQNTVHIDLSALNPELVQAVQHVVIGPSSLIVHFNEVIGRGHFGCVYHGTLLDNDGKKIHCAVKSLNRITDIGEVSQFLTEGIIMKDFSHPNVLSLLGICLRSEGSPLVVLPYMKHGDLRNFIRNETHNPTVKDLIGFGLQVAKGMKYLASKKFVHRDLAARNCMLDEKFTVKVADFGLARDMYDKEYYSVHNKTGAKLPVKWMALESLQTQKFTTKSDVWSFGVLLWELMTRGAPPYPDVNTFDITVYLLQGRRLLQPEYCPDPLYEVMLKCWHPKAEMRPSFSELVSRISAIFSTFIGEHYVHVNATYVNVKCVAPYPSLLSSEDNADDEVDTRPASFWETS

[6] = cilengitide 10 uM co-treated with L3-1Y/IgG2 (1/5 dilutions from 2 ug/ml)

CC(C)[C@H]1C(=O)N[C@@H](CCCNC(=N)N)C(=O)NCC(=O)N[C@@H](CC(=O)O)C(=O)N[C@H](Cc2ccccc2)C(=O)N1C [cilengitide, Cyclo(L-arginylglycyl-L-α-aspartyl-D-phenylalanyl-N-methyl-L-valyl), reference compound]
growth inhibitory effect (cell viability) [1, 6]: exhibited
growth inhibitory effect (cell viability) [2, 6]: exhibited

CC1(C)CCC(c2ccc(Cl)cc2)=C(CN2CCN(c3ccc(C(=O)NS(=O)(=O)c4ccc(N[C@H](CCN5CCOCC5)CSc5ccccc5)c(S(=O)(=O)C(F)(F)F)c4)cc3)CC2)C1 [ABT-263, 4-[4-[[2-(4-Chlorophenyl)-5,5-dimethyl-1-cyclohexen-1-yl]methyl]-1-piperazinyl]-N-[[4-[[(1R)-3-(4-morpholinyl)-1-[(phenylthio)methyl]propyl]amino]-3-[(trifluoromethyl)sulfonyl]phenyl]sulfonyl]benzamide]
cancer cell growth inhibitory effect (cell viability) ([1]; ABT-263 2.5 uM co-treated with L3-1Y/IgG2 (1/5 dilutions from 2 ug/ml)): can be achieved
growth inhibitory effect (cell viability) [3]: increased compared to the case that the L3-1Y/IgG2 antibody was treated alone
cancer cell growth inhibitory effect (cell viability) [4]: can be achieved

NC1(c2ccc(-c3nc4ccn5c(=O)[nH]nc5c4cc3-c3ccccc3)cc2)CCC1 [MK-2206, 8-(4-(1-aminocyclobutyl)phenyl)-9-phenyl-[1,2,4]triazolo[3,4-f][1,6]naphthyridin-3(2H)-one, reference compound]
growth inhibitory effect (cell viability) ([1]; MK-2206 5 uM co-treated with L3-1Y/IgG2 (1/5 dilutions from 2 ug/ml)): exhibited
cancer cell growth inhibitory efficacy (cell viability) ([2]; MK-2206 10 uM co-treated with L3-1Y/IgG2 (1/5 dilutions from 2 ug/ml)): exhibited

B1: scFv of huAbF46: scFv of huAbF46, VH-linker-VL, encoded by SEQ ID NO: 55 (protein)
scFv: EVQLVESGGGLVQPGGSLRLSCAASGFTFTDYYMSWVRQAPGKGLEWLGFIRNKANGYTTEYSASVKGRFTISRDNSKNTLYLQMNSLRAEDTAVYYCARDNWFAYWGQGTLVTVSSGLGGLGGGGSGGGGSGGSSGVGSDIQMTQSPSSLSASVGDRVTITCKSSQSLLASGNQNNYLAWHQQKPGKAPKMLIIWASTRVSGVPSRFSGSGSGTDFTLTISSLQPEDFATYYCQQSYSAPLTFGQGTKVEIKR
specificity to c-Met [5]: specificity to c-Met
